{"source": "paper PMC10167667", "about": "“Structural and functional characterization of a multi-domain GH92 α-1,2-mannosidase from Neobacillus novalis” (Acta Crystallographica. Section D, Structural Biology, 2023)", "biological_target": "T1, NnGH92 (Neobacillus novalis, UniProt A0A7R9KAR8)", "T1 construct": "full-length five-domain enzyme without native signal peptide (Ser34-Asp1411); Alcalase signal peptide then N-terminal HHHHHHPR tag kept; secreted from Bacillus subtilis", "T1 sequence (A0A7R9KAR8 entry or part of it)": "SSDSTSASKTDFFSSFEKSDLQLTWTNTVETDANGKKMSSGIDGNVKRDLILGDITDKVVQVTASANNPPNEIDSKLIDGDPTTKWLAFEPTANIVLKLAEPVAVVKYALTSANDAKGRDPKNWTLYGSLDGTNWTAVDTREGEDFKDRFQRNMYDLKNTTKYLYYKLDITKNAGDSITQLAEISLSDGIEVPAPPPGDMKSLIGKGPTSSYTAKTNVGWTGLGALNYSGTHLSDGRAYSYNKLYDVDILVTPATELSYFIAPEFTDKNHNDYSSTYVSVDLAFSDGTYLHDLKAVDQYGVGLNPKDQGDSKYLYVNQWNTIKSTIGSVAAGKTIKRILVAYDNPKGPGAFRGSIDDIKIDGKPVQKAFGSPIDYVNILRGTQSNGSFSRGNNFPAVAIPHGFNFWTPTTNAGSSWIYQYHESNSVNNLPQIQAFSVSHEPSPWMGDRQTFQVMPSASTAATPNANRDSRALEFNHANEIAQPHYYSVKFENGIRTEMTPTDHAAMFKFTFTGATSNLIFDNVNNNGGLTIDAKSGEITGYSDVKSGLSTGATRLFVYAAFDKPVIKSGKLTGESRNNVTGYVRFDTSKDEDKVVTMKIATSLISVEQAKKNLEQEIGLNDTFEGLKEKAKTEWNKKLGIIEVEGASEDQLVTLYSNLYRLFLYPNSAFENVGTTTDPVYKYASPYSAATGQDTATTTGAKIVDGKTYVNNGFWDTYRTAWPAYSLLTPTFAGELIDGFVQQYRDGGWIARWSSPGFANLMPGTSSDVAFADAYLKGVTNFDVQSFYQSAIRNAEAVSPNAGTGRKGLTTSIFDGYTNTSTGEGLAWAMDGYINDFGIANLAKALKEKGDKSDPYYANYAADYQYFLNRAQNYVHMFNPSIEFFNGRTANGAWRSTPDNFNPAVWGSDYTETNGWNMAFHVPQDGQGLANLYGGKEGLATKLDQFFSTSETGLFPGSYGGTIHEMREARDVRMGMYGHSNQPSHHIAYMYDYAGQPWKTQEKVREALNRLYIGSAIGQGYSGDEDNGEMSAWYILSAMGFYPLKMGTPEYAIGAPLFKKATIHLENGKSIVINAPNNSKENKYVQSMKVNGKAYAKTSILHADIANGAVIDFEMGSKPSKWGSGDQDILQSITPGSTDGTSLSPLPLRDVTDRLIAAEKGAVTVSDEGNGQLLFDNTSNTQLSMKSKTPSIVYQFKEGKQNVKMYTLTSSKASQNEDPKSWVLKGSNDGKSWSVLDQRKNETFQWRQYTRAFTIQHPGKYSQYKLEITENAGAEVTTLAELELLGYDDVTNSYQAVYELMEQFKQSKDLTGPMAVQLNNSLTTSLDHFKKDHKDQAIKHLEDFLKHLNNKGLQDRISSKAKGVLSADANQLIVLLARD", "assay": "X-ray crystal structure, […] Å", "format": "binding", "settings": "co-crystallised with 5 mM mannoimidazole and 8 mM CaCl2, pH 6.6; catalytic active site (-1 subsite, Ca2+); second site in N-terminal CBM32 (chain A)", "data": [{"smiles": "OC[C@@H]1[C@@H](O)[C@H](O)[C@H](O)c2nccn21", "note": "[mannoimidazole]", "values": [{"measurement": "X-ray crystal structure, 2.3 Å", "value": "solved in complex with the mannosidase inhibitor mannoimidazole (ManI; PDB entry 7nsn"}]}]}
